# Results published in ChEMBL document CHEMBL4330144, “A mitochondria-targeted organic arsenical accelerates mitochondrial metabolic disorder and function injury” (Bioorg Med Chem, 2019).
# Calls of active or inactive are those of the source. The calls are words filed in the database; no cut-off is given here.
# Columns and labels:
# Format in all cases: functional
# Rattus norvegicus = species: Rattus norvegicus; test: Induction of mitochondrial membrane permeability in isolated Wistar rat mitochondria at 50 uM for 30 mins by TEM analysis
# NB-4 [1] = test: Induction of apoptosis in human NB4 cells assessed as live cells after 24 hrs in presence of Z-VAD-fmk by Annexin V-FITC/propidium iodide staining based flow cytometry (reference value: 92%)
# NB-4 [2] = test: Induction of apoptosis in human NB4 cells assessed as late apoptotic cells after 24 hrs in presence of Z-VAD-fmk by Annexin V-FITC/propidium iodide staining based flow cytometry (reference value: 2.9%)
smiles,measurement,setting,value
O=C(CC[P+](c1ccccc1)(c1ccccc1)c1ccccc1)Nc1ccc([As]2SCCCS2)cc1.[Cl-],Activity,Rattus norvegicus,Active
same,Activity,NB-4 [1],81.9%
same,Activity,NB-4 [2],5.2%
